{"source": "patent US6426343B1", "about": "“Preparation and use of a specific GABA-Aα5 receptor ligand for treatment of Alzheimer's disease” (Merck Sharp & Dohme Ltd., priority 1995, dated 2002)", "key": {"[1]": {"molecular_target": "T1, α3β2γ2 (Homo sapiens, UniProt P18507+P34903)", "T1 construct": "expressed in transfected cells; host or cells: Xenopus oocytes, nuclear injection of cDNAs in pCDM8", "T1 sequence (P34903 29-492)": "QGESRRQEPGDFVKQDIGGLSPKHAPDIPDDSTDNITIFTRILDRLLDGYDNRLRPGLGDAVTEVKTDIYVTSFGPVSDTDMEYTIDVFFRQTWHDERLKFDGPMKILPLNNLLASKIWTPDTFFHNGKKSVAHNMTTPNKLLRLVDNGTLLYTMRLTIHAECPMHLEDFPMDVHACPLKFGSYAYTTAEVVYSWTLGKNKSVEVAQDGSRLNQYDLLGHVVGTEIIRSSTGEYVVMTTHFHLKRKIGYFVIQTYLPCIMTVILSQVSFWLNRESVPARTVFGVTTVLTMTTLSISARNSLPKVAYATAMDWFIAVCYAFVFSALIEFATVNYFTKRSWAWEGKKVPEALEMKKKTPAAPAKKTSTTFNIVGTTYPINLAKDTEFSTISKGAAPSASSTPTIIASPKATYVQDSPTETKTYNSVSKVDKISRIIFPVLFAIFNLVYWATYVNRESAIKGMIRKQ", "T1 sequence (P47870 25-512 partner limits assumed)": "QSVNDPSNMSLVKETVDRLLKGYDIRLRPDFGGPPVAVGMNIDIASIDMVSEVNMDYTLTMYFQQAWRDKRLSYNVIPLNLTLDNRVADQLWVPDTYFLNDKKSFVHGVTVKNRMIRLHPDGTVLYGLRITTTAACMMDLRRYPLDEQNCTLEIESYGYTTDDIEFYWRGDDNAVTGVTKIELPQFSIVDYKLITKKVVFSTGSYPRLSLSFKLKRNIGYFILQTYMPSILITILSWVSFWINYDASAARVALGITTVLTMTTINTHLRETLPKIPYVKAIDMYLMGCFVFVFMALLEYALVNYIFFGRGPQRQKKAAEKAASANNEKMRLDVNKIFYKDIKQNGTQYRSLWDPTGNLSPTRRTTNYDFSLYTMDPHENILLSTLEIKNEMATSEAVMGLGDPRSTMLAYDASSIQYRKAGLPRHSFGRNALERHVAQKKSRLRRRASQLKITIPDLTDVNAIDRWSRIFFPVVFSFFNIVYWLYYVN", "T1 sequence (P18507 40-467 isoform P18507-1 limits assumed)": "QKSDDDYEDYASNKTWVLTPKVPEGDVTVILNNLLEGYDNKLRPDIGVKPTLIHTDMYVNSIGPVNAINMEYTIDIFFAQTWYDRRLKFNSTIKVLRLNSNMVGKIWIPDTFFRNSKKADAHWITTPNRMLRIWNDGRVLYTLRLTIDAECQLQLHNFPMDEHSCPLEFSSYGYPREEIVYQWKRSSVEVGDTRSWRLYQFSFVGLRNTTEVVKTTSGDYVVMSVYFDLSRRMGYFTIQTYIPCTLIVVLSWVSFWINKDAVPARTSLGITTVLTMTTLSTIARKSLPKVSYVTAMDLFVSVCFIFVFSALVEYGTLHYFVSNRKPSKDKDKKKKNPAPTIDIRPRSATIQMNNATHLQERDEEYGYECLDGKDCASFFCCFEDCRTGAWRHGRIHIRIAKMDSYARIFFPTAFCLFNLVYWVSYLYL", "assay": "Two electrode voltage-clamp, modulation of GABA EC20 current in Xenopus oocytes", "format": "cell-based", "details": "1 μM", "procedure": "(§1) Binding studies on transfected cells containing α1β3γ2S, α2β3γ2S, and α5β3γ2S have identified compounds with α5 selectivity. These compounds were studied using electrophysiological techniques (Wafford et al, 1993) to determine their functional effects on […], α2β2γ2S, α3β2γ2S, α5β2γ2S and α6β2γ2S GABAA receptors expressed in Xenopus oocytes. Oocyte nuclei were directly injected with 10.0-20.0 nl of the relevant cDNAs (6.0 ng/μl) engineered into the expression vector pCDM8. Following incubation for 24 h, oocytes were placed in a […] and perfused with saline. By using the two electrode voltage-clamp recording method, GABA activated currents could be measured by bathing the cell in a solution containing GABA. Firstly a reproducible current response was established using a GABA concentration which gave approximately 20% of the maximal GABA response that could be elicited (EC20). […] The response could be potentiated by a BZ receptor agonist or inhibited by BZ receptor inverse agonist"}, "[2]": {"molecular_target": "T2, α2β2γ2 (Homo sapiens, UniProt P18507+P47869)", "T2 construct": "expressed in transfected cells; host or cells: Xenopus oocytes, nuclear injection of cDNAs in pCDM8", "T2 sequence (P47869 29-451)": "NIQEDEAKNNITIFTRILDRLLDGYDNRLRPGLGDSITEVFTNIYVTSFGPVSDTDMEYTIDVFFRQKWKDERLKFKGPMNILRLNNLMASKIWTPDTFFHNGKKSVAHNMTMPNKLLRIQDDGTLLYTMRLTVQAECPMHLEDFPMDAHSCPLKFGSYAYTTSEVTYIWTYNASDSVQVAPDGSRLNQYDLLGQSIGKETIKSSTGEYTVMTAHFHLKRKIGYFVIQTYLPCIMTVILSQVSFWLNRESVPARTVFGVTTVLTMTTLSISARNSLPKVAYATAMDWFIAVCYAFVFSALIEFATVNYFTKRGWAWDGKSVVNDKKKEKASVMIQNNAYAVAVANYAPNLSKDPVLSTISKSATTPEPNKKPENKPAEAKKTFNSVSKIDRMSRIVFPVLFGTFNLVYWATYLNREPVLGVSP", "T2 sequence (P47870 25-512 partner limits assumed)": "as the sequence (P47870 25-512 partner limits assumed) above", "T2 sequence (P18507 40-467 isoform P18507-1 limits assumed)": "as the sequence (P18507 40-467 isoform P18507-1 limits assumed) above", "assay": "Two electrode voltage-clamp, modulation of GABA EC20 current in Xenopus oocytes", "format": "cell-based", "details": "1 μM", "procedure": "as §1"}, "[3]": {"molecular_target": "T3, α1β2γ2 (Homo sapiens, UniProt P14867+P18507)", "T3 construct": "expressed in transfected cells; host or cells: Xenopus oocytes, nuclear injection of cDNAs in pCDM8", "T3 sequence (P14867 28-456)": "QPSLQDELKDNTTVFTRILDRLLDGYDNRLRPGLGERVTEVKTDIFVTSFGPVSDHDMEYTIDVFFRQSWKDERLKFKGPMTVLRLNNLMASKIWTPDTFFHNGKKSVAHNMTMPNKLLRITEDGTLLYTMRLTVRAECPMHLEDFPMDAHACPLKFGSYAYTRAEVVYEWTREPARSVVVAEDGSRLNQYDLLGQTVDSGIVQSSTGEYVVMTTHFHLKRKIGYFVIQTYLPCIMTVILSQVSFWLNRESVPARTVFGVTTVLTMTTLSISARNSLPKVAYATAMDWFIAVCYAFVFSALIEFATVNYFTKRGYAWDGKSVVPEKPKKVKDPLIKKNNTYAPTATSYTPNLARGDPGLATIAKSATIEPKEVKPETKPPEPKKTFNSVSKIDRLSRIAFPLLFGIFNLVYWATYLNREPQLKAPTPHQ", "T3 sequence (P47870 25-512 partner limits assumed)": "as the sequence (P47870 25-512 partner limits assumed) above", "T3 sequence (P18507 40-467 isoform P18507-1 limits assumed)": "as the sequence (P18507 40-467 isoform P18507-1 limits assumed) above", "assay": "Two electrode voltage-clamp, modulation of GABA EC20 current in Xenopus oocytes", "format": "cell-based", "details": "1 μM", "procedure": "as §1"}, "[4]": {"molecular_target": "T4, α5β2γ2 (Homo sapiens, UniProt P18507+P31644)", "T4 construct": "expressed in transfected cells; host or cells: Xenopus oocytes, nuclear injection of cDNAs in pCDM8", "T4 sequence (P31644 32-462)": "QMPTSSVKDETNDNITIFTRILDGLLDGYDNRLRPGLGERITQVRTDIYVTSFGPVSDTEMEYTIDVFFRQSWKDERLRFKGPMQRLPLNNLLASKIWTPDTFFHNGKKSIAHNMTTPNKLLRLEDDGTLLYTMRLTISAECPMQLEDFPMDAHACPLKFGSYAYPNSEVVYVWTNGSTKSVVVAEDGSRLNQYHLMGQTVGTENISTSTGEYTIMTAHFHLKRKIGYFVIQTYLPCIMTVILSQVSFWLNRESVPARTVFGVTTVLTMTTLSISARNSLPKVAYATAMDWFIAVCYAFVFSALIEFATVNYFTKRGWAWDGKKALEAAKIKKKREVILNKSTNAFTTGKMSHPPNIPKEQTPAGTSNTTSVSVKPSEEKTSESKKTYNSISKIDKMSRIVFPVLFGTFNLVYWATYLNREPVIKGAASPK", "T4 sequence (P47870 25-512 partner limits assumed)": "as the sequence (P47870 25-512 partner limits assumed) above", "T4 sequence (P18507 40-467 isoform P18507-1 limits assumed)": "as the sequence (P18507 40-467 isoform P18507-1 limits assumed) above", "assay": "Two electrode voltage-clamp, modulation of GABA EC20 current in Xenopus oocytes", "format": "cell-based", "details": "1 μM", "procedure": "as §1"}, "[5]": {"test_system": "non-α5 subtype containing GABA-A receptors", "assay": "In vivo [3H]Ro 15-1788 binding after pellet implantation", "parameters": "species or system rat", "details": "SC pellet"}, "[6]": {"test_system": "rats", "assay": "Pro-convulsant testing, chronic treatment, PTZ infusion", "format": "in vivo, rat", "details": "0.1, 0.3, 1.0 mg/kg IP, 24 doses, final dose 48 h before testing", "procedure": "The rats used in this study received chronic treatment with FG 8094 during a MWM experiment. The rats were dosed IP once per day (Monday to Friday) and received a total of 24 doses. Following each drug administration rats were tested in a MWM and received the final dose of drug 48 h prior to convulsant testing. The subjects were assigned to one of four treatment groups (n=8) and given either Vehicle, 0.1, 0.3, or 1.0 mg/kg of FG 8094.\nOn the day of proconvulsant testing, the rats were restrained and pentylenetetrazole (PTZ, 40.0 mg/ml) was infused as described above. The latency(s) to both clonic and tonic (full extension) convulsion was recorded. Latency data were transformed to yield the dose of PTZ needed to reach the threshold of both clonic and tonic seizures."}, "[7]": {"molecular_target": "T5, α5β3γ2 (Homo sapiens, UniProt P18507+P31644)", "T5 construct": "expressed in transfected cells", "T5 sequence (P31644 32-462)": "as the sequence (P31644 32-462) above", "T5 sequence (P28472 26-473 partner)": "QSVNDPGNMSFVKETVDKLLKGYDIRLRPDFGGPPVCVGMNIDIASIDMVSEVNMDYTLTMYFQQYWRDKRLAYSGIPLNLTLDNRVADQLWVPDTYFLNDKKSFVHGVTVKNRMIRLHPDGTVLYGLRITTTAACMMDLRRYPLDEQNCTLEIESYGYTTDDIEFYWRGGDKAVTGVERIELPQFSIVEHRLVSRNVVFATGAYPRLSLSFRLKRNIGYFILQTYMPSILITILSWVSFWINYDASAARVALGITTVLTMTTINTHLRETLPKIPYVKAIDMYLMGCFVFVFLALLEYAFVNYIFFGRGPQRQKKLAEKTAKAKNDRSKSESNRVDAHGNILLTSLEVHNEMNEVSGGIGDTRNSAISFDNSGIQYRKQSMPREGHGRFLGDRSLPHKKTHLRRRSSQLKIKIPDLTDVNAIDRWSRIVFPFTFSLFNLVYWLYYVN", "T5 sequence (P18507 40-467 isoform P18507-1 limits assumed)": "as the sequence (P18507 40-467 isoform P18507-1 limits assumed) above", "assay": "Radioligand binding, membranes of stably transfected cells"}}, "data": [{"smiles": "CCOC(=O)c1ncn2c1[C@@H]1CCCN1C(=O)c1cc(OC)ccc1-2", "note": "[FG 8094, 9H-imidazo[1,5-a]pyrrolo[2,1-C][1,4]benzodiazepine-1-carboxylic acid, 11, 12, 13, 13a-tetrahydro-7-methoxy-9-oxo-, ethyl ester, (S)-(9CI)]", "values": [{"measurement": "functional effect on GABA EC20 current, α3β2γ2", "setting": "[1]", "value": "partial receptor inverse agonist"}, {"measurement": "functional effect on GABA EC20 current, α2β2γ2", "setting": "[2]", "value": "partial receptor inverse agonist"}, {"measurement": "functional effect on GABA EC20 current, α1β2γ2", "setting": "[3]", "value": "no intrinsic effect"}, {"measurement": "functional effect on GABA EC20 current, α5β2γ2", "setting": "[4]", "value": "full receptor inverse agonist"}, {"measurement": "occupancy of non-α5 subtype containing GABA-A receptors", "setting": "[5]", "value": "did not significantly occupy"}, {"measurement": "threshold dose of PTZ to clonic or tonic seizure", "setting": "[6]", "value": "no significant effect of treatment"}, {"measurement": "Ki", "setting": "[7]", "value": "0.45 ± 0.15", "unit": "nM"}, {"measurement": "selectivity for α5-containing receptors over α1", "setting": "[7]; over α1", "value": 107, "unit": "fold"}, {"measurement": "selectivity for α5-containing receptors over α2", "setting": "[7]; over α2", "value": 60, "unit": "fold"}, {"measurement": "selectivity for α5-containing receptors over α3", "setting": "[7]; over α3", "value": 53, "unit": "fold"}, {"measurement": "selectivity for α5-containing receptors over α6", "setting": "[7]; over α6", "value": 184, "unit": "fold"}]}]}
